Experimental data reported in the NIST ThermoML archive (doi:10.1016/j.jct.2011.10.009).
± gives the expanded uncertainty stated by the source.

Conditions: 101.33 kPa, Liquid, Vibrating tube method

## [2H]C(C)O (stereo not given) [ethanol-1-d]
278.15 K
  mass density: 818.95 ± 0.14 kg/m3
288.15 K
  mass density: 810.32 ± 0.14 kg/m3
298.15 K
  mass density: 801.57 ± 0.14 kg/m3
308.15 K
  mass density: 792.68 ± 0.15 kg/m3
318.15 K
  mass density: 783.63 ± 0.15 kg/m3

## CCO [ethanol]
278.15 K
  mass density: 802.08 ± 0.11 kg/m3
288.15 K
  mass density: 793.6 ± 0.12 kg/m3
298.15 K
  mass density: 785.03 ± 0.12 kg/m3
308.15 K
  mass density: 776.35 ± 0.12 kg/m3
318.15 K
  mass density: 767.54 ± 0.13 kg/m3
